Experiments:
[1] = biological target: T1, PAH103-428 (catalytic domain) (Homo sapiens, UniProt P00439); test: ANS-monitored thermal unfolding of PAH103-428; type: binding; settings: for ΔT0.5 PAH103-428 / T0.5 PAH103-428: 100 μM compound; for ΔT0.5 PAH103-428: vs no ligand; for T0.5 PAH103-428: mean ± SD; for stabilization of PAH103-428: 100 μM ligand
T1 construct: made in house; host or cells: E. coli
T1 sequence (P00439 103-428): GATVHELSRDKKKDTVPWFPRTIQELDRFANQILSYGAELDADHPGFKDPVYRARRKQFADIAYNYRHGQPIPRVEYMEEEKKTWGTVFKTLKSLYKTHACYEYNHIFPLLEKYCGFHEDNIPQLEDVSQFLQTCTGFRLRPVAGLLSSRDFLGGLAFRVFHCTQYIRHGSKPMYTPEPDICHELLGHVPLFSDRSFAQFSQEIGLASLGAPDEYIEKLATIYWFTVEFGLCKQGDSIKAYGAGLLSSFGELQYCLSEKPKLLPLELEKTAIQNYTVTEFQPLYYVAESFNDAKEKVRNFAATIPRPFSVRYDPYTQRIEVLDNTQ
Protocol: HTS for ligand-induced PAH stabilization was performed by monitoring the thermal denaturation of recombinant pure PAH protein in the presence of the extrinsic fluorescent probe 8-anilino 1-naphtalene sulfonic acid (ANS; Aldrich). HTS experiments were performed in a FluoDia T70 High Temperature Fluorescence Microplate Reader (Photon Technology International). Protein-ligand solutions (200 uL) were dispensed into 96-well microplates (ThermoFast®96 Skirted from Abgene) and overlayed with mineral oil. Protein solutions contained 0.1 mg/ml PAH (2 μM in PAH subunit) in 20 mM Hepes 200 mM NaCl pH 7.0 and 100 μM ANS. Ligands were added in DMSO, at 100 μM and 2.5% final concentration, respectively. Control experiments in the absence of DMSO and/or ligands were routinely performed in each microplate. Ligands (from MayBridge HitFinder™ Collection Database) were manually added to the microplates containing the protein solutions and incubated at 25° C. for 30 min before loading them onto the microplate reader. Thermal denaturation was monitored by following the increase in ANS fluorescence intensity due to protein unfolding λexc=395 and λern=500 nm; filters (Matulis D, et. Al., Biochemistry 2005, 44(13):5258-66). Fluorescence was registered in the 25-75° C. range, at a 1° C./min scan rate and allowing the system to equilibrate at each temperature for 1 min before fluorescence acquisition The experiments were real-time monitored using the software provided by the manufacturer. After smoothing and normalization of the experimental data, ligand induced stabilization was screened by estimation of the T0.5 as midpoint temperature of the transition defined as the temperature where half of the unfolded fluorescence signal (fu) is experimentally observed, using a home-built software written in C++ and the following expression (equation 1): […]
Additional thermal denaturation experiments were performed on a Cary Eclipse fluorescence spectrophotometer equipped with a temperature controlled Peltier multicell holder (Varian). Samples containing PAH (2 μM subunit) in 20 mM NaHepes, 200 mM NaCl, pH 7.0, 100 μM ANS, 2.5% DMSO and 0-100 μM ligands were incubated at room temperature for 30 min to allow equilibration prior to measurements. Thermal denaturation was monitored by following changes in ANS fluorescence emission (excitation at 395 and emission at 500 nm; slits 10 nm) at a 1 K/min in a 20-80° C. range. Each run contained 4 different samples, including a control in the absence of ligand. Data analysis was performed by fitting of the experimental fluorescence to equation 1.
Similar ligand-induced stabilization experiments were performed using i) a double truncated form of PAH equivalent to the catalytic domain (PAH103-428) lacking both the regulatory N-terminal domain and the tetramerization motif and existing as a functional dimmer and ii) the R68S-PAH mutant, associated to mild PKU and one of the few PKU mutants that display enough stability to be purified as a stable tetramer.

PAH = biological target: T2, PAH (Mus musculus, UniProt P16331); test: Hepatic PAH activity in mice after oral treatment; type: in vivo; settings: oral about 5.9 mg/kg/day for 10 days; for measured PAH activity: liver extract, control group 1.27±0.63
T2 construct: Liver homogenates were prepared at 4° C; from tissue; host or cells: liver of C57Bl/6 mice
T2 sequence (P16331 1-453): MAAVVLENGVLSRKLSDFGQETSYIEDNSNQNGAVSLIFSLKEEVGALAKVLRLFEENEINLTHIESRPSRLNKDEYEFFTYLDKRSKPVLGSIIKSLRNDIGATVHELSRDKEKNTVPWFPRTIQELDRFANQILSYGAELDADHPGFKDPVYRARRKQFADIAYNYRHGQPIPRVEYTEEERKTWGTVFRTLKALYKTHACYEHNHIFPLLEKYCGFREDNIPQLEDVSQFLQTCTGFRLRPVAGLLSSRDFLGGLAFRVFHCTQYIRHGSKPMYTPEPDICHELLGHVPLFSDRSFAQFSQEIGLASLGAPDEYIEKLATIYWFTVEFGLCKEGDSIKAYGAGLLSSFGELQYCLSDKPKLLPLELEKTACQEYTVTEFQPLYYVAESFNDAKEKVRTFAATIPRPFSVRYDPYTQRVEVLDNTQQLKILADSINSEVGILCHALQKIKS
Protocol: Solutions of Compounds 11 and Compound 13 were prepared at concentrations of 5 mg/ml (14 mM) in 10% DMSO and 10% glucose. For that, stocks of 50 mg/ml (140 mM) of each compound in 100% DMSO were diluted 1:10 with a 10% glucose solution. Both the stocks and the final solutions of Compounds 11 and 13 are in fact suspensions since the compound is not soluble al these conditions.
Animal experiments were performed by Beat Töny (University of Zurich Children's Hospital). 25 μl/day of 10% DMSO (Group 1, control) or the solutions of Compound 11 (Group 2) or Compound 13 (Group […]) were administered orally for 10 days to young adult C57BI/6 mice (all females) exactly 12 weeks old and with weight between 19 to 23 g were in each group, i.e. in Group 2 and 3 animals were given about 5.9 mg/kg/day. Five animals were treated in each group, and no weight change was experienced upon treatment, i.e. <5% change between start and end. Animals were sacrificed at day 10 of treatment, and their livers were sectioned in two frozen immediately in liquid nitrogen, then the frozen half-livers were sent to the Department of Biomedicine, University of Bergen in dry ice. Liver homogenates were prepared at 4° C. in presence of dithiothreitol (DTT) and the protease inhibitors phenylmethylsulfonyl fluoride, leupeptin, and pepstatin as described, Elzaouk L, et al. J Biol Chem 2003; 278(30):28303-11. After homogeneization the extracts were clarified by centrifugation al 170,000 g for 30 min at 4° C.
The concentration of soluble protein was about 35 mg/ml of liver extract, similar in each group. The hepatic PAH response to oral supplementation of DMSO and of Compounds 11, 13 in 10% DMSO was analyzed b determining: • i) PAH activity, as described, after removal of free amino acids and contaminants of low molecular weight by using Zebra™ Desalt Spin columns(Pierce). • ii) Pah-mRNA expression by quantitative real-time PCR analysis, performed as reported

| SMILES | ΔT0.5 PAH103-428 [1] | T0.5 PAH103-428 [1] | stabilization of PAH103-428 [1] | measured PAH activity (PAH) | increase in PAH activity (PAH; liver, C57BI/6 mice) | increase in PAH activity (significance) (PAH; liver) |
| --- | --- | --- | --- | --- | --- | --- |
| Cn1cnc([N+](=O)[O-])c1N1CCN(C(c2ccccc2)c2ccccc2)CC1 [Compound 6, 1-benzhydryl-4-(1-methyl-4-nitro-1H-imidazol-5-yl)piperazine] | 8.4 °C | 53.3 ± 1.5 °C | significantly stabilized |  |  |  |
| Nc1c(-c2ccc3ccccc3n2)c2ccc([N+](=O)[O-])cc2c(=O)n1Cc1ccccc1 [Compound 11, 3-amino-2-benzyl-7-nitro-4-(2-quinolyl)-1,2-dihydroisoquinolin-1-one] | 10.1 °C | 55.0 ± 1.3 °C | significantly stabilized | 2.2±0.78 | 1.65 fold |  |
| Cc1onc(-c2ccccc2)c1-c1n[nH]c(N)c1C#N [Compound 5, 5-amino-3-(5-methyl-3-phenyl-4-isoxazolyl)-1H-pyrazole-4-carbonitrile] | 4.3 °C | 49.2 ± 1.2 °C |  |  |  |  |
| Cc1ccnc(-n2c(=S)[nH]c3sc(C)c(C)c3c2=O)c1 [Compound 13, 5,6-dimethyl-3-(4-methyl-2-pyridinyl)-2-thioxo-2,3 dihydrothieno[2,3-d]pyrimidin-4(1H)-one] | 1.2 °C | 46.1 ± 0.7 °C | only a slight stabilized | 1.41±0.54 |  | not significant |

Reference: patent US8338423B2, “Compositions for the treatment of hyperphenylalaninemia” (Universidad de Zaragoza, priority 2007, dated 2012)
